# Experimental data as given in PubChem BioAssay (NCI).
#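 Following 48 hours of exposure in 96-well plates, responses at five concentrations were used to interpolate endpoints linearly. Abbreviation: GI50, concentration required for 50% inhibition of growth. At the TGI there is no net growth.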
# Legend:
# Assay in all cases: NCI-60 cell line screen, 48 h
# HCT-15 colon = system: HCT-15 colon
# OVCAR-5 ovarian = system: OVCAR-5 ovarian
# BT-549 breast = system: BT-549 breast
# OVCAR-3 ovarian = system: OVCAR-3 ovarian
# NCI/ADR-RES ovarian = system: NCI/ADR-RES ovarian
# OVCAR-8 ovarian = system: OVCAR-8 ovarian
# UACC-62 melanoma = system: UACC-62 melanoma
# ACHN renal = system: ACHN renal
# M14 melanoma = system: M14 melanoma
# HS 578T breast = system: HS 578T breast
# SR leukemia = system: SR leukemia
# MALME-3M melanoma = system: MALME-3M melanoma
# LOX IMVI melanoma = system: LOX IMVI melanoma
# SK-OV-3 ovarian = system: SK-OV-3 ovarian
# SN12C renal = system: SN12C renal
# UACC-257 melanoma = system: UACC-257 melanoma
# UO-31 renal = system: UO-31 renal
# NCI-H460 lung = system: NCI-H460 lung
# HOP-92 NSCLC = system: HOP-92 NSCLC
# SK-MEL-2 melanoma = system: SK-MEL-2 melanoma
# MOLT-4 leukemia = system: MOLT-4 leukemia
# OVCAR-4 ovarian = system: OVCAR-4 ovarian
# HCC-2998 colon = system: HCC-2998 colon
# SNB-19 CNS = system: SNB-19 CNS
# RPMI-8226 leukemia = system: RPMI-8226 leukemia
# U251 CNS = system: U251 CNS
# EKVX NSCLC = system: EKVX NSCLC
# TK-10 renal = system: TK-10 renal
# HOP-62 NSCLC = system: HOP-62 NSCLC
# A549 NSCLC = system: A549 NSCLC
# NCI-H226 lung = system: NCI-H226 lung
# A498 renal = system: A498 renal
# NCI-H23 lung = system: NCI-H23 lung
# COLO 205 colon = system: COLO 205 colon
# SNB-75 CNS = system: SNB-75 CNS
# SK-MEL-5 melanoma = system: SK-MEL-5 melanoma
# SF-268 CNS = system: SF-268 CNS
# SF-295 CNS = system: SF-295 CNS
# IGROV1 ovarian = system: IGROV1 ovarian
# DU-145 prostate = system: DU-145 prostate
# MDA-MB-231 breast = system: MDA-MB-231 breast
# KM12 colon = system: KM12 colon
# HT29 colon = system: HT29 colon
# RXF 393 renal = system: RXF 393 renal
# T-47D breast = system: T-47D breast
# NCI-H522 lung = system: NCI-H522 lung
# SF-539 CNS = system: SF-539 CNS
# MCF7 breast = system: MCF7 breast
# HL-60(TB) leukemia = system: HL-60(TB) leukemia
# K-562 leukemia = system: K-562 leukemia
# HCT-116 colon = system: HCT-116 colon
# CCRF-CEM leukemia = system: CCRF-CEM leukemia
# MDA-MB-435 = system: MDA-MB-435
# SK-MEL-28 melanoma = system: SK-MEL-28 melanoma
# 786-0 renal = system: 786-0 renal
# PC-3 prostate = system: PC-3 prostate
# CAKI-1 renal = system: CAKI-1 renal
# SW-620 colon = system: SW-620 colon
compound,measurement,setting,value
Oc1ccc(-c2nc3ccccc3s2)cc1CN(Cc1ccccn1)Cc1ccccn1,GI50,HCT-15 colon,149 nM
same,TGI,HCT-15 colon,14.3 µM
same,GI50,OVCAR-5 ovarian,2920 nM
same,TGI,OVCAR-5 ovarian,29.8 µM
same,GI50,BT-549 breast,1830 nM
same,TGI,BT-549 breast,15.6 µM
same,GI50,OVCAR-3 ovarian,2730 nM
same,TGI,OVCAR-3 ovarian,18.1 µM
same,GI50,NCI/ADR-RES ovarian,359 nM
same,TGI,NCI/ADR-RES ovarian,4.22 µM
same,GI50,OVCAR-8 ovarian,520 nM
same,TGI,OVCAR-8 ovarian,13.4 µM
same,GI50,UACC-62 melanoma,1240 nM
same,TGI,UACC-62 melanoma,6.66 µM
same,GI50,ACHN renal,99.1 nM
same,TGI,ACHN renal,3.91 µM
same,GI50,M14 melanoma,548 nM
same,TGI,M14 melanoma,4.6 µM
same,GI50,HS 578T breast,4.66 µM
same,TGI,HS 578T breast,39.4 µM
same,GI50,SR leukemia,2140 nM
same,TGI,SR leukemia,> 100 µM
same,GI50,MALME-3M melanoma,1800 nM
same,TGI,MALME-3M melanoma,7.77 µM
same,GI50,LOX IMVI melanoma,1210 nM
same,TGI,LOX IMVI melanoma,10.7 µM
same,GI50,SK-OV-3 ovarian,1350 nM
same,TGI,SK-OV-3 ovarian,43.5 µM
same,GI50,SN12C renal,1700 nM
same,TGI,SN12C renal,14.4 µM
same,GI50,UACC-257 melanoma,3.1 µM
same,TGI,UACC-257 melanoma,13 µM
same,GI50,UO-31 renal,83.4 nM
same,TGI,UO-31 renal,2490 nM
same,GI50,NCI-H460 lung,228 nM
same,TGI,NCI-H460 lung,10.5 µM
same,GI50,HOP-92 NSCLC,4.19 µM
same,TGI,HOP-92 NSCLC,36.7 µM
same,GI50,SK-MEL-2 melanoma,2500 nM
same,TGI,SK-MEL-2 melanoma,9.69 µM
same,GI50,MOLT-4 leukemia,1420 nM
same,TGI,MOLT-4 leukemia,13.9 µM
same,GI50,OVCAR-4 ovarian,787 nM
same,TGI,OVCAR-4 ovarian,12.8 µM
same,GI50,HCC-2998 colon,3.23 µM
same,TGI,HCC-2998 colon,17 µM
same,GI50,SNB-19 CNS,1510 nM
same,TGI,SNB-19 CNS,20.8 µM
same,GI50,RPMI-8226 leukemia,2080 nM
same,TGI,RPMI-8226 leukemia,16.6 µM
same,GI50,U251 CNS,760 nM
same,TGI,U251 CNS,17.6 µM
same,GI50,EKVX NSCLC,1200 nM
same,TGI,EKVX NSCLC,14.9 µM
same,GI50,TK-10 renal,486 nM
same,TGI,TK-10 renal,34.6 µM
same,GI50,HOP-62 NSCLC,340 nM
same,TGI,HOP-62 NSCLC,32.1 µM
same,GI50,A549 NSCLC,833 nM
same,TGI,A549 NSCLC,18.5 µM
same,GI50,NCI-H226 lung,210 nM
same,TGI,NCI-H226 lung,3.5 µM
same,GI50,A498 renal,2660 nM
same,TGI,A498 renal,18.6 µM
same,GI50,NCI-H23 lung,2640 nM
same,TGI,NCI-H23 lung,24.3 µM
same,GI50,COLO 205 colon,3.4 µM
same,TGI,COLO 205 colon,15.2 µM
same,GI50,SNB-75 CNS,1220 nM
same,TGI,SNB-75 CNS,15.3 µM
same,GI50,SK-MEL-5 melanoma,556 nM
same,TGI,SK-MEL-5 melanoma,2270 nM
same,GI50,SF-268 CNS,1000 nM
same,TGI,SF-268 CNS,16 µM
same,GI50,SF-295 CNS,468 nM
same,TGI,SF-295 CNS,6.87 µM
same,GI50,IGROV1 ovarian,1960 nM
same,TGI,IGROV1 ovarian,15.8 µM
same,GI50,DU-145 prostate,1260 nM
same,TGI,DU-145 prostate,20.8 µM
same,GI50,MDA-MB-231 breast,1300 nM
same,TGI,MDA-MB-231 breast,13.7 µM
same,GI50,KM12 colon,909 nM
same,TGI,KM12 colon,15.6 µM
same,GI50,HT29 colon,6.74 µM
same,TGI,HT29 colon,19.9 µM
same,GI50,RXF 393 renal,1640 nM
same,TGI,RXF 393 renal,9.96 µM
same,GI50,T-47D breast,3.79 µM
same,TGI,T-47D breast,89.9 µM
same,GI50,NCI-H522 lung,2830 nM
same,TGI,NCI-H522 lung,14.2 µM
same,GI50,SF-539 CNS,1420 nM
same,TGI,SF-539 CNS,6.75 µM
same,GI50,MCF7 breast,1190 nM
same,TGI,MCF7 breast,15.2 µM
same,GI50,HL-60(TB) leukemia,2140 nM
same,TGI,HL-60(TB) leukemia,13.3 µM
same,GI50,K-562 leukemia,674 nM
same,TGI,K-562 leukemia,35.5 µM
same,GI50,HCT-116 colon,590 nM
same,TGI,HCT-116 colon,14 µM
same,GI50,CCRF-CEM leukemia,1090 nM
same,TGI,CCRF-CEM leukemia,> 100 µM
same,GI50,MDA-MB-435,2240 nM
same,TGI,MDA-MB-435,11.3 µM
same,GI50,SK-MEL-28 melanoma,2350 nM
same,TGI,SK-MEL-28 melanoma,15.3 µM
same,GI50,786-0 renal,353 nM
same,TGI,786-0 renal,10.1 µM
same,GI50,PC-3 prostate,1090 nM
same,TGI,PC-3 prostate,21.8 µM
same,GI50,CAKI-1 renal,313 nM
same,TGI,CAKI-1 renal,3.36 µM
same,GI50,SW-620 colon,1060 nM
same,TGI,SW-620 colon,14.7 µM
